IC50 data for 8 compounds are collected here from patent EP0801071A1, “LEWIS X DERIVATIVE AND PROCESS FOR PRODUCING THE SAME” (SUMITOMO PHARMACEUTICALS COMPANY, LIMITED, priority 1994, dated 1996).

The experiment deals with T1, rsE-selectin (Homo sapiens, UniProt P16581).
T1 sequence (P16581 22-556 limits assumed): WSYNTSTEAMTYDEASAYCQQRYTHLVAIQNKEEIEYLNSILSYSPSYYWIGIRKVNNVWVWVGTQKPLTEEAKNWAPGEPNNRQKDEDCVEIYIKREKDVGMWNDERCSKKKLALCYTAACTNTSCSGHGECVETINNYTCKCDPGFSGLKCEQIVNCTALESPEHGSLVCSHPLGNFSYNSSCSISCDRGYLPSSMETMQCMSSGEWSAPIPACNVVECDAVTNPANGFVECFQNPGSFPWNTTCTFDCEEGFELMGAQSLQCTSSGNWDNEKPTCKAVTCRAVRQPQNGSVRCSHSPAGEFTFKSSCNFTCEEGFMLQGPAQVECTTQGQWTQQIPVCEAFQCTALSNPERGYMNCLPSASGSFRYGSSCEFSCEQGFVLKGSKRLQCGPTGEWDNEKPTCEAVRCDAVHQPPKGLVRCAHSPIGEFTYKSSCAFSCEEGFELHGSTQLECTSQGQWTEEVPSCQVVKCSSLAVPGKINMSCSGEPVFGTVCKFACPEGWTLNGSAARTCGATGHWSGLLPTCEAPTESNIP
Briefly: Inhibition of adhesion of HL-60 cells to plate-coated rsE-selectin (Experiment 2). It is filed as cell-based. The following applies: 50% inhibition concentration of adhesion of rsE-selectin to HL-60, from inhibition curves; medium-only well = 100%. As for the experimental part: The DPBS solution containing rsE-selectin (3 µg/ml) was added to a 96 well plate at 50 µl/well, while wells filled with DPBS without rsE-selectin (non-specific adhesion control) were prepared on the same plate, and the plate was kept at room temperature for 3 hours. Then wells were washed 3 times with a DPBS/BSA solution at 200 µl/well, and DPBS/BSA solution was added at 200 µl/well, and the plate was kept at room temperature for 1 hour. After removing DPBS/BSA solution, a medium containing NWB or NWB plus a compound of the invention was added at 40 µl/well.
Frozen HL-60 cells were thawed promptly at 37°C, and washed with NWB cooled to 4°C 3 times by centrifugation at 1500rpm × 5 min. The cells were adjusted with NWB to 1×10^7 cells/ml, added to the plate at 20 µl/well, and the plate was kept at room temperature for 15 min.
The plate was set on a plate washer to remove nonadhesive HL-60 cells. The plate washer was set at slow mode, cycle 3 (washing 3 times), soak 0 sec., 12 rows (along vertical direction), and volume of NWB for 1 washing 200 µl/well at room temperature.
A citrate solution containing 0.1% NP-40 at room temperature was added at 50 µl/well, and the plate was kept at room temperature for 5 minutes. The substrate solution (4 mg OPDA, 4µl 30% H2O2/4 ml citrate) was added at 50 µl/well, protected from light with aluminum foil, allowed to develop color for 5 to 20 minutes, and the reaction was terminated by adding 4N-H2SO4 at 50µl/well. The substrate solution was used within 30 minutes after preparation.
The OD490 of each well was determined, and the OD490 value of the well for nonspecific adhesion was subtracted from the value of each well. The value found in a well containing only the medium was used as a control (100%) and the amount of adhesion in wells containing Compounds (15), (31), (33)-(40) or (41) of the invention was calculated by percent in terms of the values of the control. By drawing inhibition curves, 50% inhibition concentration (IC50) was determined.
The materials for the experiment were obtained from the following sources. rsE-selectin: producible by the method described in J. C. Poulson, J. Am. Chem. Soc., 117: 66-79 (1995). The sample of rsE-selectin used in the experiments was kindly supplied by the author. HL-60 : ATCC Corp. DPBS (Dulbecco Phosphate Buffered Saline) : GIBCO Corp. BSA (Bovine Serum Albumin) : Sigma Corp. HBSS (Hanks Balanced Salt Solution) : GIBCO Corp. OPDA (Ortho-phenylenediamine) : Sigma Corp. RPMI 1640 medium : GIBCO Corp. Bovine Fetal Serum : GIBCO Corp. Plate : Immulon. 2. (flat bottomed) : Dynatech Laboratories. Plate washer; Microplate Washer : Molecular Devices Corp.
A compound of the present invention was adjusted to 100mM with DPBS, and pH was adjusted to 7.1-7.4.
HL-60 was cultured in RPMI 1640 medium supplemented with 10% Bovine Fetal Serum. Using a cell freezing solution consisting of 80% RPMI 1640 medium + 10% Bovine Fetal Serum + 10% DMSO, HL-60 was frozen at 1.5 × 10^7 cells per a tube according to a conventional method, and stocked at -80°C. This was used under sterile condition.
Composition of DPBS/BSA was DPBS + 1% BSA.
Composition of NWB was HBSS + 10mM-HEPES + 0.2%glucose + 1%BSA+ 1mM-CaCl2. These two solutions are prepared under sterile condition.
The citrate solution was prepared by dissolving 2.33 g of citric acid and 9.20 g of Na2HPO4·12H2O in 500 ml of desalted water.

pIC50: −log10 of the molar value.

Regarding `CC(=O)N[C@H]1[C@H]([C@H](O)[C@H](O)CO)O[C@@](O[C@H]2[C@@H](O)[C@@H](CO)O[C@@H](O[C@H]3[C@H](O[C@@H]4O[C@@H](C)[C@@H](O)[C@@H](O)[C@@H]4O)[C@@H](NC(=O)c4ccc5ccccc5c4)[C@H](OCCOCc4ccccc4)O[C@@H]3CO)[C@@H]2O)(C(=O)O)C[C@@H]1O` [Compound 33, 2-Benzyloxyethyl (5-acetamido-3,5-dideoxy-α-D-glycero-D-galacto-2-nonulopyranosylonic acid)-(2→3)-O-(β-D-galactopyranosyl)-(1→4)-O-[α-L-fucopyranosyl-(1→3)-O ]-(2-deoxy-2-naphthamido-β-D-glucopyranoside)], the pIC50 (usually the negative decadic logarithm of the IC50, by convention in mol/L) was 3.68.
For `CC(=O)N[C@H]1[C@H]([C@H](O)[C@H](O)CO)O[C@@](O[C@H]2[C@@H](O)[C@@H](CO)O[C@@H](O[C@H]3[C@H](O[C@@H]4O[C@@H](C)[C@@H](O)[C@@H](O)[C@@H]4O)[C@@H](NC(=O)c4ccc5ccccc5c4)[C@H](OCCOCCOCCO)O[C@@H]3CO)[C@@H]2O)(C(=O)O)C[C@@H]1O` [Compound 34, 2-[2-(2-Hydroxyethoxy)ethoxy]ethyl (5-acetamido-3,5-dideoxy-α-D-glycero-D-galacto-2-nonulopyra nosylonic acid)-(2→3)-O-(β-D-galactopyranosyl)-(1→4)-O-[α-L-fucopyranosyl-(1→3)-O]-(2-deoxy-2-paphthamido-β-D-glucopyranoside)] the value was 3.96; for `CC(=O)N[C@H]1[C@H]([C@H](O)[C@H](O)CO)O[C@@](O[C@H]2[C@@H](O)[C@@H](CO)O[C@@H](O[C@H]3[C@H](O[C@@H]4O[C@@H](C)[C@@H](O)[C@@H](O)[C@@H]4O)[C@@H](NC(=O)c4ccc5ccccc5c4)[C@H](OCCCc4ccccc4)O[C@@H]3CO)[C@@H]2O)(C(=O)O)C[C@@H]1O` [Compound 36, 3-Phenylpropyl (5-acetamido-3,5-dideoxy-α-D-glycero-D-galacto-2-nonulopyranosylonic acid)-(2→3)-O-(β-D-galactopyranosyl)-(1→4)-O-[α-L-fucopyranosyl-(1→3)-O]-(2-deoxy-2-naphthamido-β-D-glucopyranoside)], 3.96; for `CC(=O)N[C@H]1[C@H]([C@H](O)[C@H](O)CO)O[C@@](O[C@H]2[C@@H](O)[C@@H](CO)O[C@@H](O[C@H]3[C@H](O[C@@H]4O[C@@H](C)[C@@H](O)[C@@H](O)[C@@H]4O)[C@@H](NC(=O)c4ccc5ccccc5c4)[C@H](OCCCCCCCCCCCCO)O[C@@H]3CO)[C@@H]2O)(C(=O)O)C[C@@H]1O` [Compound 37, 12-Hydroxydodecyl (5-acetamido-3,5-dideoxy-α-D-glycero-D-galacto-2-nonulopyranosylonic acid)-(2→3)-O-(β-D-galactopyranosyl)-(1→4)-O-[α-L-fucopyranosyl-(1→3)-O]-(2-deoxy-2-naphthamido-β-D-glucopyranoside)], 3.96.
For `COc1cc(CCCO[C@@H]2O[C@H](CO)[C@@H](O[C@@H]3O[C@H](CO)[C@H](O)[C@H](O[C@]4(C(=O)O)C[C@H](O)[C@@H](NC(C)=O)[C@H]([C@H](O)[C@H](O)CO)O4)[C@H]3O)[C@H](O[C@@H]3O[C@@H](C)[C@@H](O)[C@@H](O)[C@@H]3O)[C@H]2NC(=O)c2ccc3ccccc3c2)cc(OC)c1OC` [Compound 38, 3-(3,4,5-Trimethoxyphenyl)propyl (5-acetamido-3,5-dideoxy-α-D-glycero-D-galacto-2-nonulopyranosylonic acid)-(2→3)-O-(β-D-galactopyranosyl)-(1→4)-O-[α-L-fucopyranosyl-(1→3)-O]-(2-deoxy-2-naphthamido-β-D-glucopyra noside)] the value was 3.82; for `CCCCCCCCCOc1cc(CCCO[C@@H]2O[C@H](CO)[C@@H](O[C@@H]3O[C@H](CO)[C@H](O)[C@H](O[C@]4(C(=O)O)C[C@H](O)[C@@H](NC(C)=O)[C@H]([C@H](O)[C@H](O)CO)O4)[C@H]3O)[C@H](O[C@@H]3O[C@@H](C)[C@@H](O)[C@@H](O)[C@@H]3O)[C@H]2NC(=O)c2ccc3ccccc3c2)cc(OC)c1OC` [Compound 39, 3-(4,5-Dimethoxy-3-nonyloxyphenyl)propyl (5-acetamido-3,5-dideoxy-α-D-glycero-D-galacto-2-nonulopyra nosylonic acid)-(2→3)-O-(β-D-galactopyranosyl)-(1→4) -O-[α-L-fucopyranosyl-(1→3)-O]-(2-deoxy-2-naphthamido-β-D-g lucopyranoside)], 3.82.
In turn, `CCCCCCCCCOc1c(OC)cc(CCCO[C@@H]2O[C@H](CO)[C@@H](O[C@@H]3O[C@H](CO)[C@H](O)[C@H](O[C@]4(C(=O)O)C[C@H](O)[C@@H](NC(C)=O)[C@H]([C@H](O)[C@H](O)CO)O4)[C@H]3O)[C@H](O[C@@H]3O[C@@H](C)[C@@H](O)[C@@H](O)[C@@H]3O)[C@H]2NC(=O)c2ccc3ccccc3c2)cc1OC` [Compound 40, 3-(3,5-Dimethoxy-4-nonyloxyphenyl)propyl (5-acetamido-3,5-dideoxy-α-D-glycero-D-galacto-2-nonulopyra nosylonic acid)-(2→3)-O-(β-D-galactopyranosyl)-(1→4)-O-[α-L-fucopyranosyl-(1→3)-O]-(2-deoxy-2-naphthamido-β-D-glucopyranoside)] had a pIC50 of 4.15.
Compound `COc1cc(CCCO[C@@H]2O[C@H](CO)[C@@H](O[C@@H]3O[C@H](CO)[C@H](O)[C@H](O[C@]4(C(=O)O)C[C@H](O)[C@@H](NC(C)=O)[C@H]([C@H](O)[C@H](O)CO)O4)[C@H]3O)[C@H](O[C@@H]3O[C@@H](C)[C@@H](O)[C@@H](O)[C@@H]3O)[C@H]2NC(=O)c2ccccc2)cc(OC)c1OC` [Compound 41, 3-(3,4,5-Trimethoxyphenyl)propyl (5-acetamido-3,5-dideoxy-α-D-glycero-D-galacto-2-nonulopyranosylonic acid)-(2→3)-O-(β-D-galactopyranosyl)-(1→4)-O-[α-L-fucopyranosyl-(1→3)-O]-(2-deoxy-2-benzamido-β-D-glucopyranoside)] had a pIC50 of 3.96.
